Laboratory results published in the supplement of paper PMC10307832.

How the values were obtained:
Assay in all cases: relative viability (nuclei count vs DMSO), 5 days (fraction); higher = more cells survive
[1] = system: NCI-H1650
Method in brief: (§1)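 After 5 days of treatment, lung cancer cells in 1536-well plates were fixed and stained in a single step (final 0.05% Triton X-100, 1% formaldehyde, 1 ug/ml Hoechst) and their nuclei counted on 4× images. Treatment had been applied by pin tool the day after seeding as one drug alone or as a fixed anchor-drug dose with five library-drug doses (not always all listed) in √10 steps. Relative viability is the nuclei count of treated wells divided by that of vehicle wells, and values are medians of duplicate plates.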

[2] = system: NCI-H441
Method in brief: as §1

[3] = system: NCI-H2087
Method in brief: as §1

[4] = system: NCI-H838
Method in brief: as §1

[5] = system: NCI-H1651
Method in brief: as §1

[6] = system: NCI-H2009
Method in brief: as §1

[7] = system: PC-3 [JPC-3]
Method in brief: as §1

[8] = system: NCI-H23
Method in brief: as §1

[9] = system: NCI-H1975
Method in brief: as §1

[10] = system: NCI-H2085
Method in brief: as §1

[11] = system: NCI-H2170
Method in brief: as §1

[12] = system: H3255
Method in brief: as §1

[13] = system: EPLC-272H
Method in brief: as §1

[14] = system: NCI-H727
Method in brief: as §1

[15] = system: LC-2-ad
Method in brief: as §1

[16] = system: LOU-NH91
Method in brief: as §1

[17] = system: NCI-H2023
Method in brief: as §1

[18] = system: NCI-H2228
Method in brief: as §1

[19] = system: HARA
Method in brief: as §1

[20] = system: SW 1573
Method in brief: as §1

[21] = system: UMC-11
Method in brief: as §1

CCNC(=O)c1noc(-c2cc(C(C)C)c(O)cc2O)c1-c1ccc(CN2CCOCC2)cc1 [Luminespib] + CC1(C)CCC(c2ccc(Cl)cc2)=C(CN2CCN(c3ccc(C(=O)NS(=O)(=O)c4ccc(N[C@H](CCN5CCOCC5)CSc5ccccc5)c(S(=O)(=O)C(F)(F)F)c4)cc3)CC2)C1 [Navitoclax] (partner 0.5 µM)
relative viability ([1]; first compound 0.002 µM): 1.31 | relative viability ([1]; first compound 0.006325 µM): 1.11 | relative viability ([1]; first compound 0.02 µM): 0.318 | relative viability ([1]; first compound 0.06325 µM): 0.159 | relative viability ([1]; first compound 0.2 µM): 0.144 | relative viability ([2]; first compound 0.002 µM): 0.714 | relative viability ([2]; first compound 0.006325 µM): 0.648 | relative viability ([2]; first compound 0.02 µM): 0.626 | relative viability ([2]; first compound 0.06325 µM): 0.121 | relative viability ([2]; first compound 0.2 µM): 0.161 | relative viability ([3]; first compound 0.002 µM): 1.03 | relative viability ([3]; first compound 0.006325 µM): 0.871 | relative viability ([3]; first compound 0.02 µM): 0.911 | relative viability ([3]; first compound 0.06325 µM): 0.202 | relative viability ([3]; first compound 0.2 µM): 0.202 | relative viability ([4]; first compound 0.002 µM): 1.3 | relative viability ([4]; first compound 0.006325 µM): 1.12 | relative viability ([4]; first compound 0.02 µM): 1.07 | relative viability ([4]; first compound 0.06325 µM): 0.18 | relative viability ([4]; first compound 0.2 µM): 0.193 | relative viability ([5]; first compound 0.002 µM): 0.967 | relative viability ([5]; first compound 0.006325 µM): 1.1 | relative viability ([5]; first compound 0.02 µM): 1.08 | relative viability ([5]; first compound 0.06325 µM): 0.18 | relative viability ([5]; first compound 0.2 µM): 0.144 | relative viability ([6]; first compound 0.002 µM): 1.17 | relative viability ([6]; first compound 0.006325 µM): 1.08 | relative viability ([6]; first compound 0.02 µM): 1.21 | relative viability ([6]; first compound 0.06325 µM): 0.72 | relative viability ([6]; first compound 0.2 µM): 0.0895 | relative viability ([7]; first compound 0.002 µM): 0.818 | relative viability ([7]; first compound 0.006325 µM): 0.81 | relative viability ([7]; first compound 0.02 µM): 0.648 | relative viability ([7]; first compound 0.06325 µM): 0.847 | relative viability ([7]; first compound 0.2 µM): 0.739 | relative viability ([8]; first compound 0.002 µM): 1.08 | relative viability ([8]; first compound 0.006325 µM): 0.793 | relative viability ([8]; first compound 0.02 µM): 0.625 | relative viability ([8]; first compound 0.06325 µM): 0.142 | relative viability ([8]; first compound 0.2 µM): 0.13 | relative viability ([9]; first compound 0.002 µM): 1.17 | relative viability ([9]; first compound 0.006325 µM): 1.06 | relative viability ([9]; first compound 0.02 µM): 0.877 | relative viability ([9]; first compound 0.06325 µM): 0.218 | relative viability ([9]; first compound 0.2 µM): 0.142 | relative viability ([10]; first compound 0.002 µM): 1.15 | relative viability ([10]; first compound 0.006325 µM): 1.13 | relative viability ([10]; first compound 0.02 µM): 1.14 | relative viability ([10]; first compound 0.06325 µM): 0.677 | relative viability ([10]; first compound 0.2 µM): 0.503 | relative viability ([11]; first compound 0.002 µM): 0.646 | relative viability ([11]; first compound 0.006325 µM): 0.596 | relative viability ([11]; first compound 0.02 µM): 0.293 | relative viability ([11]; first compound 0.06325 µM): 0.581 | relative viability ([11]; first compound 0.2 µM): 0.451 | relative viability ([12]; first compound 0.002 µM): 0.517 | relative viability ([12]; first compound 0.006325 µM): 0.511 | relative viability ([12]; first compound 0.02 µM): 0.272 | relative viability ([12]; first compound 0.06325 µM): 0.536 | relative viability ([12]; first compound 0.2 µM): 0.112 | relative viability ([13]; first compound 0.006325 µM): 0.831 | relative viability ([13]; first compound 0.02 µM): 0.782 | relative viability ([13]; first compound 0.06325 µM): 1.11 | relative viability ([13]; first compound 0.2 µM): 1.28 | relative viability ([14]; first compound 0.002 µM): 0.43 | relative viability ([14]; first compound 0.006325 µM): 0.449 | relative viability ([14]; first compound 0.02 µM): 0.408 | relative viability ([14]; first compound 0.06325 µM): 0.218 | relative viability ([14]; first compound 0.2 µM): 0.27 | relative viability ([15]; first compound 0.002 µM): 0.41 | relative viability ([15]; first compound 0.006325 µM): 0.483 | relative viability ([15]; first compound 0.02 µM): 0.516 | relative viability ([15]; first compound 0.06325 µM): 0.0848 | relative viability ([15]; first compound 0.2 µM): 0.126 | relative viability ([16]; first compound 0.002 µM): 0.692 | relative viability ([16]; first compound 0.006325 µM): 0.707 | relative viability ([16]; first compound 0.02 µM): 0.49 | relative viability ([16]; first compound 0.06325 µM): 0.257 | relative viability ([16]; first compound 0.2 µM): 0.256 | relative viability ([17]; first compound 0.002 µM): 0.969 | relative viability ([17]; first compound 0.006325 µM): 1.11 | relative viability ([17]; first compound 0.02 µM): 0.99 | relative viability ([17]; first compound 0.06325 µM): 0.0933 | relative viability ([17]; first compound 0.2 µM): 0.0995 | relative viability ([18]; first compound 0.002 µM): 0.836 | relative viability ([18]; first compound 0.006325 µM): 0.637 | relative viability ([18]; first compound 0.02 µM): 0.614 | relative viability ([18]; first compound 0.06325 µM): 0.11 | relative viability ([18]; first compound 0.2 µM): 0.144 | relative viability ([19]; first compound 0.002 µM): 1.21 | relative viability ([19]; first compound 0.006325 µM): 1.14 | relative viability ([19]; first compound 0.02 µM): 1.15 | relative viability ([19]; first compound 0.06325 µM): 1.08 | relative viability ([19]; first compound 0.2 µM): 0.553 | relative viability ([20]; first compound 0.002 µM): 0.927 | relative viability ([20]; first compound 0.006325 µM): 0.892 | relative viability ([20]; first compound 0.02 µM): 0.803 | relative viability ([20]; first compound 0.06325 µM): 0.0809 | relative viability ([20]; first compound 0.2 µM): 0.0666 | relative viability ([21]; first compound 0.002 µM): 0.305 | relative viability ([21]; first compound 0.006325 µM): 0.349 | relative viability ([21]; first compound 0.02 µM): 0.224 | relative viability ([21]; first compound 0.06325 µM): 0.148 | relative viability ([21]; first compound 0.2 µM): 0.108
